In PMC5789092 (Scientific Reports, 2018):
Like-named read-outs stand apart in the source and are kept apart here.

Assays:
cancer cells = tested on: cancer cells; design: method as in PMID 24763364, PMID 27262408; conditions: ref [19],[33]; cited from earlier work
[1] = tested on: PC-3 (human prostate cancer); assay: SRB cytotoxicity assay, PC-3; assay type: cell-based; conditions: 72 h, mean ± SD, read-out: IC50 PC-3
[2] = tested on: canonical p50/p65 NF-κB signaling in PC-3 cells; assay: NF-κB luciferase reporter assay, TNF-α-induced; assay type: cell-based, human; conditions: 10 μM, 8 h, TNF-α 50 ng/mL
From the text: The canonical NF-κB signaling pathway is a target for developing therapeutics for multiple human diseases, including cancer and chronic inflammatory diseases[46],[47]. Many STLs are known modulators of NF-κB signaling[7],[48]. In particular, two famous STLs parthenolide and helenalin have been certified to covalently target Cys38 of NF-κB p65 through hetero-Michael addition between exocyclic methylene butyrolactones and biological thiol of Cys38[49],[50]. […] To test the inhibition of active compound in NF-κB signaling, 1i and parthenolide (P, positive control) were screened for inhibitory activity toward canonical p50/p65 NF-κB signaling with a cellular luciferase assay (Fig. 12)[51]. […] The observation that 1i and P are comparably potent in this assay hints at the possibility that 1i may also have similar properties like 1β-hydroxy alantolactone and parthenolide in cells.
Figure 12 NF-κB-luciferase inhibition assay in PC-3 cells. PC-3 cells with a stably transfected NF-κB luciferase reporter were stimulated with TNF-α (50 ng/mL) (except for noninduced control, Non-Ind) and different dose of parthenolide (P) and 1i for 8 h. Normalized luminescence was plotted as NF-κB luciferase activity compared to control (%).
PC-3 cells (8000 cells/well) were placed in a 96-well plate and the cells were then transfected with pNF-κB-Luc expression plasmid reference to the method.

[3] = tested on: HeLa (human cervix cancer); assay: SRB cytotoxicity assay, HeLa; assay type: cell-based; conditions: 72 h, mean ± SD
PC-3 cells [4] = assay: Cell cycle analysis (PI staining, flow cytometry); assay type: cell-based, human; conditions: PC-3, 48 h
Method: The cultured cells were treated with these compounds at the indicated concentrations for 48 h, then harvested, and analyzed by flow cytometry. […] Each experiment was performed in triplicate.
The cell cycle arrest on PC-3 and HepG2 cells was detected with PI staining assay (Sigma) as described previously[19]. After treatment with samples at the set concentrations for 48 h, cells were centrifuged and fixed in 70% ethanol at 4 °C refrigerator 12 h and then resuspended in PBS (100 μL RNase A and 400 μL PI). Cellular DNA content was measured using a FACSCalibur flow cytometer with Modfit LT 3.0 software. Twenty thousand cells were collected per sample. Mean values are presented from three independent experiments.

[5] = tested on: CHO (Chinese hamster ovary); assay: SRB cytotoxicity assay, CHO normal cells; assay type: cell-based; conditions: Cricetulus griseus, 72 h, normal cell line
From the text: (§1) All the synthesized derivatives of 1 and 2 were screened for their anticancer activities against four human cancer cell lines (HeLa, PC-3, HEp-2 and HepG2) and two normal cell lines (CHO and HUVEC) using the sulforhodamine B (SRB) assay.
(§2) PC-3 (human prostate cancer), HepG2 (human liver cancer) and CHO (Chinese hamster ovary) cell lines were obtained from Shanghai Institute of Biochemistry and Cell Biology, Chinese Academy of Sciences. HeLa (human cervix cancer), HUVEC (human umbilical vein endothelial cells) and HEp-2 (human laryngeal cancer) cell lines were granted by Prof. Lei of college of life sciences, Northwest A&F University. The six cell lines were grown in RPMI-1640 (Gibco) containing 10% (v/v) thermally inactivated fetal bovine serum (FBS), penicillin (100 KU/L) and streptomycin (100 KU/L) at 37 °C in a 5% CO2 humidified incubator.
(§3) In vitro cytotoxicity was assessed by using the SRB colorimetric assay refer to previous methods[19],[42].

[6] = tested on: HEp-2 (human larynx epidermal cancer); assay: SRB cytotoxicity assay, HEp-2; assay type: cell-based; conditions: 72 h, mean ± SD
From the text: as §1, §2, §3

[7] = tested on: HeLa (human cervix cancer); design: method as in Dong et al.[19]; conditions: footnote c; ref Dong et al.[19]; cited from earlier work
[8] = tested on: CHO (Chinese hamster ovary); conditions: footnote c; ref Dong et al.[19]; cited from earlier work
[9] = tested on: HEp-2 (human larynx epidermal cancer); conditions: footnote c; ref Dong et al.[19]; cited from earlier work
[10] = tested on: HUVEC (human umbilical vein endothelial cell); assay: SRB cytotoxicity assay, HUVEC normal cells; assay type: cell-based; conditions: Homo sapiens, HUVEC; 72 h, SRB, normal cell line
PC-3 cells [11] = assay: Hoechst 33258 nuclear chromatin condensation, PC-3; assay type: cell-based, human; conditions: PC-3, 72 h; VP-16 0.5 and 1 μM; 1i 1, 2 and 4 μM
Method: Figure 10 Induction of apoptosis by active compound 1i and VP-16 at the indicated concentrations on PC-3 cells. (a) 72 h after the treatment of these compounds at the indicated concentrations, cells were fixed, washed with PBS, stained with Hoechst 33258, and analyzed for morphological characteristics associated with apoptosis by fluorescence microscopic analysis (×20). (b) Compound 1i triggered changes of pro-caspase 3 and PARP by Western blotting analysis. Cells were lysed after 72 h treatment with 1i at the concentration (1, 2 and 4 μM). The lysates were resolved on a 10% SDS-PAGE, transferred on to a nitrocellulose membrane and probed for cleaved caspase 3 and PARP. β-actin was used as a loading control.
Condensation of nuclear chromatin is usually the late apoptotic event and is detected by staining Hoechst 33258[43]. PC-3 cells containing 2.0 × 10^5 cells/well were cultured on coverslips, and kept in six-well plates for 12 h. After 72 h treatment with 1i and VP-16, Hoechst 33258 staining was carried out according to the kit’s procedure (Beyotime Institute Biotechnology, China). The cells were viewed under a fluorescence microscopy (Olympus BX53 + DP72) with a ×20 objective lens.

[12] = tested on: HepG2 (human liver cancer); assay: SRB cytotoxicity assay, HepG2; assay type: cell-based; conditions: 72 h, mean ± SD, read-out: IC50 HepG2

## C=C1C(=O)OC2CC(C)=C(C(C)CCCOC(C)=O)C(OC(=O)CCCCCCCCCCC)C12 (stereo not shown) [ABL-L, 1-O-acetyl-6-O-lauroylbritannilactone]
Cancer cells
  fold stronger suppression against cancer cells compared with ABL: 4–10 fold

## C=C1C(=O)O[C@H]2[C@H]1CC/C(C)=C/CC[C@@]1(C)O[C@@H]21 [P, parthenolide, reference compound]
[1]
  IC50: 3.4 ± 0.6 µM
[2]
  NF-κB luciferase activity compared to control: 52.1%
[3]
  IC50: 7.6 ± 0.6 µM
PC-3 cells [4]; 4.0 μM
  %G0/G1: 46.2%
  %G2/M: 18.2%
  %S: 35.6%
[5]
  IC50: 5.3 ± 0.7 µM
[6]
  IC50: 6.8 ± 0.3 µM

## COc1cc([C@@H]2c3cc4c(cc3[C@@H](O[C@@H]3O[C@@H]5CO[C@@H](C)O[C@H]5[C@H](O)[C@H]3O)[C@H]3COC(=O)[C@H]23)OCO4)cc(OC)c1O [VP-16, etoposide, reference compound]
[1]
  IC50: 0.6 ± 0.1 µM
[7]
  IC50: 3 ± 0.3 µM
[8]
  IC50: 2.6 ± 0.2 µM
[9]
  IC50: 4.8 ± 0.5 µM
PC-3 cells [4]; 1.0 μM
  %G0/G1: 28.1%
  %G2/M: 42.4%
  %S: 29.5%
[10]
  IC50: 1.9 ± 0.2 µM
PC-3 cells [11]
  nuclear morphology (Hoechst 33258), apoptosis: fragmentation and condensation of chromatin
[12]
  IC50: 7.6 ± 0.8 µM
